IC50 data for 52 compounds are collected here from patent publication US8304447B2, “2-acylaminopropoanol-type glucosylceramide synthase inhibitors” (Genzyme Corporation, priority 2007, dated 2012).

The structures appear in SMILES notation. Where two headings read alike, the source gives them in different places. A value given as a limit tells only on which side of the number the result lay.

In this test the test system is GM3. The test is described as follows: GM3 Elisa assay. It is filed as cell-based. To be noted: B16-FO cells, read-out: IC50_uM_Mean. A digest of the protocol: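 Murine B16-FO melanoma cells attached 6 h on collagen, then exposed to compounds for 2 days at 37 °C. After formaldehyde fixation, cell-surface GM3 (NeuAc) was detected by anti-GM3 IgM and peroxidase anti-mouse IgM with Quantablu fluorescence (Ex 325/Em 420).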

Where [1] appears, read: 48 h, Table 1, 2 days incubation.
[2] abbreviates: 48 h, Table 2, 2 days incubation.

Regarding `COc1ccc(OCCC(=O)N[C@H](CN2CCCC2)[C@H](O)c2ccc(Cl)cc2)cc1` [Compound 382], where the note is “Table 3 (IC 50 Values)”, the IC50 was in the range of 100 to 1000 nM.
Turning to `CC(C)Oc1ccc(C(=O)CCCCC(=O)N[C@H](CN2CCCC2)[C@H](O)c2ccc3c(c2)OCCO3)cc1` [Compound 181, N-((1R,2R)-1-(2,3-dihydrobenzo[b][1,4]dioxin-6-yl)-1-hydroxy-3-(pyrrolidin-1-yl)propan-2-yl)-6-(4-isopropoxyphenyl)-6-oxohexanamide], the IC50 under setting [1] was no more than 100 nM.
For the compound `COc1ccc(OCCC(=O)N[C@H](CN2CCCC2)[C@H](O)c2ccc3c(c2)OC(F)(F)O3)cc1` [Compound 407], the IC50 (Table 3 (IC 50 Values)) lay in the range of 1000 to 3000 nM.
On the same count and under the same terms, the value for `O=C(CCCCCn1cccn1)N[C@H](CN1CCCC1)[C@H](O)c1ccc2c(c1)OCCO2` [Compound 644] was 1000 to 3000 nM.
Turning to `C[C@@H](NC(=O)N[C@H](CN1CCCC1)[C@H](O)c1ccc2c(c1)OCCO2)c1ccccc1` [Compound 286, 1-((1R,2R)-1-(2,3-dihydrobenzo[β][1,4]dioxin-6-yl)-1-hydroxy-3-(pyrrolidin-1-yl)propan-2-yl)-3-(®-1-phenylethyl)urea], the IC50 under setting [2] was in the range of 3000 to 10000 nM.
On the same count and under the same terms, the value for `COc1ccc([C@@H](O)[C@@H](CN2CCCC2)NC(=O)CCCCCC(=O)c2ccc(OC(C)C)cc2)cc1` [Compound 271] was no more than 100 nM.
Take `COc1cccc(CNC(=O)N[C@H](CN2CCCC2)[C@H](O)c2ccc3c(c2)OCCO3)c1` [Compound 80, 1-((1R,2R)-1-(2,3-dihydrobenzo[β][1,4]dioxin-6-yl)-1-hydroxy-3-(pyrrolidin-1-yl)propan-2-yl)-3-(3-methoxybenzyl)urea]: the IC50 under setting [1] was 100 to 1000 nM.
For `COc1ccc(C(=O)CCCCC(=O)N[C@H](CN2CCCC2)[C@H](O)c2ccc(OCc3ccccc3)cc2)cc1` [Compound 706], the IC50 (Table 3 (IC 50 Values)) was no more than 100 nM.
`COCCOc1ccc(C(=O)CCCC(=O)N[C@H](CN2CCCC2)[C@H](O)c2ccc3c(c2)OCCO3)cc1` [Compound 449]: the IC50 (Table 3 (IC 50 Values)) was no more than 100 nM.
The same measure, in the same setting: the value for `O=C(CCCCC(=O)C1CCC(F)(F)CC1)N[C@H](CN1CC[C@@H](F)C1)[C@H](O)c1ccc(OCc2ccccc2)cc1` [Compound 573] was 100 to 1000 nM.
Consider `CCCCCCCC(=O)N[C@H](CN1CCCC1)[C@H](O)CCCCCCC` [Compound 311], for which, under setting [2], the IC50 is 1000 to 3000 nM.
In the case of `COc1ccc(OCCC(=O)N[C@H](CN2CC3CC3C2)[C@H](O)c2ccc3c(c2)OCCO3)cc1` (stereo partly shown) [Compound 516], where the note is “Table 3 (IC 50 Values)”, the IC50 lay in the range of 100 to 1000 nM.
For the compound `COc1ccc(C(=O)CCCCC(=O)N[C@H](CN2C3CCC2CC3)[C@H](O)c2ccc(OC(C)C)cc2)cc1` [Compound 376], for the setting “Table 3 (IC 50 Values)”, the IC50 is no more than 100 nM.
With `COc1ccc(OCCC(=O)N[C@H](CN2CCCC2)[C@H](O)c2ccc(OCCOc3ccc(Cl)cc3)cc2)cc1` [Compound 723], the IC50 (Table 3 (IC 50 Values)) is no more than 100 nM.
Same read-out and setting: the value for `CCCCCCOc1ccc([C@@H](O)[C@@H](CN2CCCC2)NC(=O)CCCOc2ccc(C(C)=O)cc2)cc1` [Compound 727] was no more than 100 nM.
For `COc1ccc(OCCC(=O)N[C@H](CN2CCCC2)[C@H](O)c2ccc(Cl)s2)cc1` [Compound 493], the IC50 (Table 3 (IC 50 Values)) was 1000 to 3000 nM.
Still for that read-out and setting: the value for `CCCCCCCC(=O)N[C@H](CN1CCC1)[C@H](O)c1ccc2c(c1)OCCO2` [Compound 594] was 1000 to 3000 nM; that for `CCCCOc1ccc([C@@H](O)[C@@H](CN2CC[C@H](O)C2)NC(=O)CCCCC(=O)C2CCCCC2)cc1` [Compound 587] was 100 to 1000 nM.
The same measure, in the same setting: the value for `CCCCCCCC(=O)N[C@H](CN1CCCC1)[C@H](O)c1ccc(C)c(F)c1` [Compound 348] was 100 to 1000 nM.
Turning to `COc1ccc(C(=O)CCCC(=O)N[C@H](CN2CCCC2)[C@H](O)c2ccc3c(c2)OCCO3)cc1OC` [Compound 282, N-((1R,2R)-1-(2,3-dihydrobenzo[β][1,4]dioxin-6-yl)-1-hydroxy-3-(pyrrolidin-1-yl)propan-2-yl)-5-(3,4-dimethoxyphenyl)-5-oxopentanamide], under setting [2], the IC50 fell in the range of 1000 to 3000 nM.
As to `CCCCCCOc1ccc([C@@H](O)[C@@H](CN2CC[C@H](O)C2)NC(=O)CCOc2ccc(OC)cc2)cc1` [Compound 454], the IC50 (Table 3 (IC 50 Values)) is no more than 100 nM.
The same measure, in the same setting: with `COc1ccc(C(=O)CCCC(=O)N[C@H](CN2CCCC2)[C@H](O)c2ccc3c(c2)OC(F)(F)O3)cc1` [Compound 405] the figure was 1000 to 3000 nM.
Regarding `COc1ccc([C@@H](O)[C@@H](CN2CCCC2)NC(=O)Cc2ccc(C(F)(F)F)cc2)cc1` [Compound 251, N-((1R,2R)-1-hydroxy-1-(4-methoxyphenyl)-3-(pyrrolidin-1-yl)propan-2-yl)-2-(4-(trifluoromethyl)phenyl)acetamide], the IC50 under setting [2] lay within 100 to 1000 nM.
In the case of `O=C(Cc1ccc(-c2cccnc2)cc1)N[C@H](CN1CCCC1)[C@H](O)c1ccc2c(c1)OCCO2` [Compound 47, N-((1R,2R)-1-(2,3-dihydrobenzo[β][1,4]dioxin-6-yl)-1-hydroxy-3-(pyrrolidin-1-yl)propan-2-yl)-2-(4-(pyridin-3-yl)phenyl)acetamide], the IC50 under setting [1] lay within 100 to 1000 nM.
For `COc1ccc(C(=O)CCCCCC(=O)N[C@H](CN2CCCCC2C)[C@H](O)c2ccc3c(c2)OCCO3)cc1` (stereo partly shown) [Compound 607], where the note is “Table 3 (IC 50 Values)”, the IC50 is 1000 to 3000 nM.
Regarding `COc1ccc(C(=O)CCCCC(=O)N[C@H](CN2CCCC2)[C@H](O)c2ccc(OC)cc2OC)cc1` [Compound 353], the IC50 (Table 3 (IC 50 Values)) was in the range of 100 to 1000 nM.
The same measure, in the same setting: with `O=C(CCCNC(=O)NC1CCCCC1)N[C@H](CN1CCCC1)[C@H](O)c1ccc2c(c1)OCCO2` [Compound 691] the figure was 3000 to 10000 nM.
Turning to `COc1ccc([C@@H](O)[C@@H](CN2CCCC2)NC(=O)CCCCCC(C)(C)OC)cc1OC` [Compound 277], the IC50 under setting [2] lay in the range of 3000 to 10000 nM.
Regarding `CCCCCCOc1ccc([C@@H](O)[C@@H](CN2CCCC2)NC(=O)CCCC(=O)c2ccc(OCCOC)cc2)cc1` [Compound 442], the IC50 (Table 3 (IC 50 Values)) was no more than 100 nM.
Regarding `CC(=O)O[C@H](c1ccc2c(c1)OCCO2)[C@@H](CN1CCCC1)NC(=O)NCc1ccccc1` [Compound 243], under setting [2], the IC50 was no more than 100 nM.
With `COCC1CCCN1C[C@@H](NC(=O)CCOc1ccc(OC)cc1)[C@H](O)c1ccc2c(c1)OCCO2` (stereo partly shown) [Compound 538], where the note is “Table 3 (IC 50 Values)”, the IC50 fell in the range of 3000 to 10000 nM.
`Cc1nc(-c2ccc(NC(=O)N[C@H](CN3CCCC3)[C@H](O)c3ccc4c(c3)OCCO4)cc2)cs1` [Compound 133, 1-((1R,2R)-1-(2,3-dihydrobenzo[β][1,4]dioxin-6-yl)-1-hydroxy-3-(pyrrolidin-1-yl)propan-2-yl)-3-(4-(2-methylthiazol-4-yl)phenyl)urea]: under setting [1], the IC50 is 3000 to 10000 nM.
In the case of `COc1ccc(OCCC(=O)N(Cc2ccccn2)[C@H](CN2CCCC2)[C@H](O)c2ccc(O)cc2)cc1` [Compound 716], the IC50 (Table 3 (IC 50 Values)) was 3000 to 10000 nM.
`COc1ccc(C(=O)CCCCCC(=O)N[C@H](CN2CCCC2)[C@H](O)c2ccc3c(c2)OC(F)(F)C(F)(F)O3)cc1` [Compound 401]: the IC50 (Table 3 (IC 50 Values)) was 100 to 1000 nM.
On the same count and under the same terms, the value for `COc1ccc(OCCC(=O)N(Cc2nc3ccccc3s2)[C@H](CN2CCCC2)[C@H](O)c2ccc(O)cc2)cc1` [Compound 717] was 3000 to 10000 nM; that for `CCCCCCCCCCCCCCCC(=O)N[C@H](CN(C)Cc1ccccc1)[C@H](O)c1ccc2c(c1)OCCO2` [Compound 682] was 3000 to 10000 nM.
Still for that read-out and setting: with `O=C(CCCCC(=O)C1CCOCC1)N[C@H](CN1CCCC1)[C@H](O)c1ccc2c(c1)OCCO2` [Compound 556] the figure was 3000 to 10000 nM; with `CCCCCCCC(=O)N[C@H](CN1CCCC1)[C@H](O)c1ccc2c(c1)OC(F)(F)O2` [Compound 411], 3000 to 10000 nM.
`O=C(CCCCCCCCCCCc1cccnc1)N[C@H](CN1CCCC1)[C@H](O)c1ccc2c(c1)OCCO2` [Compound 305]: the IC50 under setting [1] was no more than 100 nM.
For `COc1ccc(C(=O)CCCCC(=O)N[C@H](CN2CCCC2)[C@H](O)c2ccc3c(c2)OC(F)(F)O3)cc1` [Compound 408], the IC50 (Table 3 (IC 50 Values)) fell in the range of 1000 to 3000 nM.
Take `CCCCCCCC(=O)N[C@H](CN1CCCC1)[C@@H](O)c1ccc2c(c1)OCCO2` [Compound 673]: the IC50 (Table 3 (IC 50 Values)) was 3000 to 10000 nM.
Still for that read-out and setting: the value for `O=C(CCCCCC(=O)c1ccc(F)cc1)N[C@H](CN1CC[C@@H](F)C1)[C@H](O)c1ccc2c(c1)OCCO2` [Compound 565] was no more than 100 nM.
As to `O=C(Nc1ccc(C(F)(F)F)cc1)N[C@H](CN1CCCC1)[C@H](O)c1ccc2c(c1)OCCO2` [Compound 81, 1-((1R,2R)-1-(2,3-dihydrobenzo[β][1,4]dioxin-6-yl)-1-hydroxy-3-(pyrrolidin-1-yl)propan-2-yl)-3-(4-(trifluoromethyl)phenyl)urea], the IC50 under setting [1] lay within 100 to 1000 nM.
Regarding `COc1ccc(OCCC(=O)N[C@H](CN2CCCC2)[C@@H](O)c2ccc3c(c2)OCCO3)cc1` [Compound 676], the IC50 (Table 3 (IC 50 Values)) fell in the range of 3000 to 10000 nM.
Consider `CCCCOc1ccc(C(O)[C@@H](CN2CC[C@@H](F)C2)NC(=O)CCCCCCCOC)cc1` (stereo partly shown) [Compound 584], for which, under “Table 3 (IC 50 Values)”, the IC50 was in the range of 100 to 1000 nM.
Same read-out and setting: with `COc1ccc(OCCC(=O)N[C@H](CN2CCCC2(C)C)[C@H](O)c2ccc3c(c2)OCCO3)cc1` [Compound 551] the figure was 3000 to 10000 nM.
Regarding `O=C(COC1CCCCC1)N[C@H](CN1CCCC1)[C@H](O)c1ccc2c(c1)OCCO2` [Compound 645], the IC50 (Table 3 (IC 50 Values)) was 3000 to 10000 nM.
In the case of `O=C(Cc1ccc(OC(F)(F)F)cc1)NC(CN1CCCC1)[C@H](O)c1ccc(Cl)s1` (stereo partly shown) [Compound 492], where the note is “Table 3 (IC 50 Values)”, the IC50 lay within 3000 to 10000 nM.
The same measure, in the same setting: the value for `CCCCCCCC(=O)N[C@H](CN1CCCC1)[C@H](O)c1ccc(OC)c(C)c1` [Compound 388] was no more than 100 nM; that for `CC(C)Oc1ccc(C(=O)NCCCCCC(=O)N[C@H](CN2CCCC2)[C@H](O)c2ccc3c(c2)OCCO3)cc1` [Compound 690] was no more than 100 nM; that for `CCCCCCCC(=O)N[C@H](CN1CCCC1)[C@H](O)c1ccc(-c2ccccc2)cc1` [Compound 697] was 100 to 1000 nM.
The same measure, in the same setting: with `O=C(CCCCCN1Cc2ccccc2C1=O)N[C@H](CN1CCCC1)[C@H](O)c1ccc2c(c1)OCCO2` [Compound 486] the figure was 1000 to 3000 nM.
